Where two headings read alike, the source gives them in different places.
Experiments:
[1] = system: 16- to 32-cell pre-compacted (in vitro-produced) embryos; assay: Culture of pre-compacted (in vitro-produced) embryos with PGF2α or PGE2; assay type: cell-based, bovine; details: vs control
Protocol: Embryos are produced by a modified protocol for in vitro production of embryos described by Edwards and Hansen, Biol. Reprod. 55:340-346 (1996). Pre-compacted 16- to 32-cell stage embryos are rapidly washed in KSOM media (Biggers, J. D. 1991. J. Reprod. Fertil. 91:543) supplemented with polyvinyl alcohol (PVA) 3 mg/ml (0.3%). The embryos are evaluated for quality (normal shape, defined blastomeres, extruded blastomeres, cytoplasmic fragmentation, even cytoplasm), are evenly sorted in four groups (formed by embryos of good quality), are transferred to experimental treatments in a 4-well plate as described below, and are returned to the incubator (5.5% CO2, 7% O2, and 87.5% N2 at 38.5° C.). Embryos remain in each treatment for 4 additional days. Embryo development is assessed using IETS (International Embryo Transfer Society) guidelines for classification of bovine embryos.
Dilutions (i.e., treatments) of PGF2α (Cayman Chemical Co.; Ann Arbor, Mich.) are prepared to obtain 0, 1, 10 and 100 ng/mL. Treatments are placed in each well of a 4-well plate (500 μL/well) and equilibrated in the incubator (5.5% CO2, 7% O2, and 87.5% N2 at 38.5° C.) for at least 5 h prior to embryo placement. […]
Data are analyzed to test for blastocyst development and hatching rates using an incomplete block design and a randomized block design, respectively. […]

[2] = system: Pre-compacted 16- to 32-cell stage bovine embryos; details: 1 ng/ml PGF on days 4 to 6 (48 h culture)
Protocol: Pre-compacted 16- to 32-cell stage bovine embryos (day 4 post fertilization) are washed in KSOM-PVA and divided into four groups, each of which is cultured for 48 hours in KSOM-PVA containing one of the following: (1) 1000 nM AL-8810, n=95 (AL-8810 group); (2) 1 ng/ml PGF, n=91 (PGF group); (3) 1000 nM AL-8810+1 ng/ml PGF, n=90 (AL-8810+PGF group); or (4) KSOM-PVA without AL-8810 or PGF, n=84 (Control group).
Following the 48 hour culture, embryos from each group are placed in HEPES-TALP and embryonic development is assessed by a technician who is uninformed of the treatments of the embryos in each group. Embryos from each treatment group are washed in KSOM-PVA and transferred to a 4-well plate with KSOM-PVA for further culture until day 8 post fertilization, when embryonic development is again assessed.

[3] = system: compacted (in vivo-derived) morula stage embryos; assay: Culture of compacted (in vivo-derived) morula-stage embryos with PGF2α; assay type: cell-based, bovine; details: 0.1, 1 or 10 ng/mL PGF2α for 24 h
Protocol: In vivo-derived glycerol-frozen morula-stage bovine embryos are thawed utilizing a three-step glycerol removal procedure. After washing, embryos are allowed to regain normal morphology for 30 min in Vigro holding medium and are sorted by stage of development and quality according with the IETS guidelines for classification of bovine embryos. For this study, a total of 4 replicates are used.
Schrick, et al, Biol. Reprod. 49:617-621 (1993) reported 0.64 ng/mL of PGF2α in flush media from short cycle cows and a negative association of PGF2α concentration with embryo quality. Based on these findings, concentrations of 0 (control, KSOM-PVA), 0.1, 1, and 10 ng/mL of PGF2α in culture medium are selected as treatments. Each treatment is placed in a different well of a 4-well plate (500 μL/well) and then maintained in the incubator (5.5% CO2, 7% O2, and 87.5% N2 at 38.5° C.) for at least 5 h before placement of embryos to allow equilibration of medium. […]
Morula embryos (Stage 4) of quality grade 1, 2 or 3 are rapidly washed four times in KSOM-PVA and randomly assigned to one of four treatments: 1) control (n=110); 2) 0.1 ng/mL PGF2α (n=108); 3) 1 ng/mL PGF2α (n=109), 4) 10 ng/mL PGF2α (n=109) and are placed in the incubator (5.5% CO2, 7% O2, and 87.5% N2 at 38.5° C.). […] Data are analyzed as in Example 1.a.

[4] = system: progestin-supplemented cows; details: cited from earlier work
recipient cattle = details: intramuscular injection immediately prior to or after non-surgical embryo transfer; vs controls; cited from earlier work

Q: What does the source list for prostaglandin F2α [PGF2α]?
A: blastocyst development ([1]; 1, 10 or 100 ng/mL PGF2α in medium, 4 days culture, P=0.002): reduced blastocyst development when compared to control; percentage of embryos reaching blastocyst stage on day 8 [2]: decreases the percentage of embryos reaching blastocyst stage on day 8; development at least two stages beyond morula (IETS guidelines) ([3]; then 48 h without, P>0.10): does not differ between treatments; hatching rates ([3]; vs control, P=0.05): decreased hatching rates when compared to control; pregnancy rates ([4]; PGF2α administered between days 5 and 8 of pregnancy, vs saline controls): decreased pregnancy rates compared to saline controls; pregnancy rates ([4]; PGF2α administered on days 10 to 13 or days 15 to 18): no effect on pregnancy rates

Q: For `CCCCC[C@H](O)/C=C/[C@H]1[C@H](O)CC(=O)[C@@H]1C/C=C\CCCC(=O)O` [PGE2, Prostaglandin E2], which blastocyst development ([1]; 5 ng/mL PGE2 in medium, P>0.10) is on record?
A: does not differ between control and PGE2 treatments

Q: Which pregnancy rates (recipient cattle) does the source give for `Cc1c(Nc2ncccc2C(=O)O)cccc1C(F)(F)F` [flunixin meglamine] here?
A: Pregnancy rates were significantly higher

Source: patent publication US8715155B2, “Embryo development and survival” (University of Tennessee Research Foundation, priority 2005, dated 2014)
